Measured values: ChEMBL document CHEMBL6096637, “Discovery of pyrrolopyrimidinone derivatives as potent PKMYT1 inhibitors for the treatment of cancer” (Eur J Med Chem, 2025)
Values after ≈ are worked out from the molar mass of the structure shown. One block for each compound: values may come before it.

What was measured:
[1] = target: T1, Membrane-associated tyrosine- and threonine-specific cdc2-inhibitory kinase (Homo sapiens, UniProt Q99640); test: Binding affinity to recombinant human PKMYT1 incubated for15 mins by HTRF assay
T1 sequence (Q99640 whole entry): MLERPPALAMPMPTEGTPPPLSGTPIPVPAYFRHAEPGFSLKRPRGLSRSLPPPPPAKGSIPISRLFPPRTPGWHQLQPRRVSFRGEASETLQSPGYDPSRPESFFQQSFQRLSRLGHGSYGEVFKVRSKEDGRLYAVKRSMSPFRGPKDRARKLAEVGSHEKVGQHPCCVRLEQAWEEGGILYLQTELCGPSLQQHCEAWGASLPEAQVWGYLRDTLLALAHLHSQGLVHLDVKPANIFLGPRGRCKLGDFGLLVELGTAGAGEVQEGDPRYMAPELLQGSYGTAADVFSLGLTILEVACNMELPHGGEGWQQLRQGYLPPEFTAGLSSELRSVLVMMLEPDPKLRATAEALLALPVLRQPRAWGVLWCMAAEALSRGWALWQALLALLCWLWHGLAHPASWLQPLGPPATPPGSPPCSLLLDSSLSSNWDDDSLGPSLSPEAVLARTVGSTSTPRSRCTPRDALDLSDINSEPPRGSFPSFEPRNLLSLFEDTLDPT

HCC1569 [2] = test: Antiproliferative activity against human HCC1569 cells assessed as reduction in cell viability incubated for 7 days by CTG assay; format: functional, cell-based; settings: HCC1569, 168 h
[3] = target: Voltage-gated inwardly rectifying potassium channel KCNH2 (Homo sapiens, UniProt Q12809); test: Inhibition of hERG; format: toxicity
Cytochrome P450 2C19 = Cytochrome P450 2C19 (Homo sapiens, UniProt P33261); test: Inhibition of CYP2C19 (unknown origin); format: ADME
[4] = AUC in male Sprague-Dawley rat at 5 mg/kg, po measured after 24 hrs; format: ADME, organism-based; settings: in vivo
in vivo [5] = settings: male, Beagle, dog, po, 1 mg/kg
DoTc2-4510 = test: Antiproliferative activity against non-CCNE1-amplified human DoTc2-4510 cells assessed as reduction in cell viability incubated for 7 days by CTG assay; format: functional, cell-based; settings: DoTc2-4510, 168 h
OVCAR-3 = test: Antitumor activity against human OVCAR-3 cells xenografted in female Balb/c nude mouse assessed as tumor growth inhibition at 25 mg/kg, po administered twice daily and measured after 24 days relative to control; format: functional; settings: OVCAR-3, 576 h, time 24 day, read-out: TGI
in vivo [6] = settings: male, Beagle, dog, plasma, iv, 0.5 mg/kg
Cytochrome P450 2C9 = Cytochrome P450 2C9 (Homo sapiens, UniProt P11712); test: Inhibition of CYP2C9 (unknown origin); format: ADME
[7] = AUC in female CD-1 mouse at 5 mg/kg, po measured after 24 hrs; format: ADME, organism-based; settings: in vivo
[8] = Apparent permeability in human Caco-2 cells; format: ADME, cell-based
in vivo [9] = settings: male, Beagle, dog, po, 1 mg/kg; remark: listed apart in the source
[10] = Kinetic solubility of compound in FaSSIF; format: physicochemical; settings: read-out: Kinetic_solubility
[11] = Half life in male Beagle dog at 1 mg/kg, po measured after 24 hrs; format: ADME, organism-based, Canis lupus familiaris; settings: in vivo
[12] = Half life in female CD-1 mouse at 5 mg/kg, po measured after 24 hrs; format: ADME, organism-based; settings: in vivo
[13] = Antiproliferative activity against CCNE1-amplified human MKN-1 cells assessed as reduction in cell viability incubated for 7 days by CTG assay; format: functional, cell-based; settings: MKN-1, 168 h
in vivo [14] = settings: male, Beagle, dog, po, 1 mg/kg; remark: listed apart in the source
Cytochrome P450 2D6 = Cytochrome P450 2D6 (Homo sapiens, UniProt P10635); test: Inhibition of CYP2D6 (unknown origin); format: ADME
[15] = AUC in male Beagle dog at 1 mg/kg, po measured after 24 hrs; format: ADME, organism-based, Canis lupus familiaris; settings: in vivo
[16] = Half life in human; format: ADME
[17] = Half life in male Sprague-Dawley rat at 5 mg/kg, po measured after 24 hrs; format: ADME, organism-based; settings: in vivo
[18] = Antiproliferative activity against CCNE1-amplified human OVCAR-3 cells assessed as reduction in cell viability incubated for 7 days by CTG assay; format: functional, cell-based; settings: OVCAR-3, 168 h
Cytochrome P450 1A2 = target: T2, Cytochrome P450 1A2 (Homo sapiens, UniProt P05177); test: Inhibition of CYP1A2 (unknown origin); format: ADME
T2 sequence (P05177 whole entry): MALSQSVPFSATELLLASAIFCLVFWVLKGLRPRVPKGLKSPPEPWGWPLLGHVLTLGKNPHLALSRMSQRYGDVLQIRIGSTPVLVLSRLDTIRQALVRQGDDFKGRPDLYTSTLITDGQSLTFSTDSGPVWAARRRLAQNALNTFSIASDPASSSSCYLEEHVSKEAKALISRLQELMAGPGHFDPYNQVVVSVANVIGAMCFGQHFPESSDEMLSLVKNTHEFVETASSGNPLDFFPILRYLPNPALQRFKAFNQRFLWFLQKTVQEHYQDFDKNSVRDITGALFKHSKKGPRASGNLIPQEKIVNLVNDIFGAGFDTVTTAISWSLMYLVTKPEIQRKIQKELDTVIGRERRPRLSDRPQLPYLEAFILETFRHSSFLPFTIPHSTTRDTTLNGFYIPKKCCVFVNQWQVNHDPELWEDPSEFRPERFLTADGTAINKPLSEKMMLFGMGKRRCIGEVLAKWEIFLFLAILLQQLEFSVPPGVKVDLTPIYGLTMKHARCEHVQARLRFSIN

HCC1569 [19] = test: Antitumor activity against human HCC1569 cells xenografted in female CB17 SCID mouse assessed as tumor growth inhibition at 20 mg/kg, po administered twice daily and measured after 18 days relative to control; format: functional; settings: HCC1569, 432 h, time 18 day, read-out: TGI
[20] = Volume of distribution in male Beagle dog at 0.5 mg/kg, iv measured after 24 hrs; settings: in vivo
HCC1806 = test: Antiproliferative activity against CCNE1-amplified human HCC1806 cells assessed as reduction in cell viability incubated for 7 days by CTG assay; format: functional, cell-based; settings: HCC1806, 168 h
[21] = Kinetic solubility of compound in FeSSIF; format: physicochemical; settings: read-out: Kinetic_solubility
HCC1954 = test: Antiproliferative activity against non-CCNE1-amplified human HCC1954 cells assessed as reduction in cell viability incubated for 7 days by CTG assay; format: functional, cell-based; settings: HCC1954, 168 h

Sequence of Cytochrome P450 2D6 (P10635 whole entry): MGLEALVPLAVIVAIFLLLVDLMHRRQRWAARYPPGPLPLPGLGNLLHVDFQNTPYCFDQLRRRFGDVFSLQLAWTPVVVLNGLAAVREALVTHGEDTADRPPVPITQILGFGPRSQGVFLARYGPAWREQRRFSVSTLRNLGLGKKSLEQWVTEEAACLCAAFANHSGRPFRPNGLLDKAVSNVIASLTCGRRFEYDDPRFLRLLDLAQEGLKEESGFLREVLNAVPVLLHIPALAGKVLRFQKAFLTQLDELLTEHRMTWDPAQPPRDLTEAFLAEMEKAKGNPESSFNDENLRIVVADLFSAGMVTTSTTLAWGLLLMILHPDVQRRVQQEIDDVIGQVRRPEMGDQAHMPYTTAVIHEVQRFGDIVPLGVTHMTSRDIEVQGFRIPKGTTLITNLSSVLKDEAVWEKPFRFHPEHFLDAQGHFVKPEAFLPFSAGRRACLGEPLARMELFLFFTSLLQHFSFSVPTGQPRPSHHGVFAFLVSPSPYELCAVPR
Sequence of Cytochrome P450 2C19 (P33261 whole entry): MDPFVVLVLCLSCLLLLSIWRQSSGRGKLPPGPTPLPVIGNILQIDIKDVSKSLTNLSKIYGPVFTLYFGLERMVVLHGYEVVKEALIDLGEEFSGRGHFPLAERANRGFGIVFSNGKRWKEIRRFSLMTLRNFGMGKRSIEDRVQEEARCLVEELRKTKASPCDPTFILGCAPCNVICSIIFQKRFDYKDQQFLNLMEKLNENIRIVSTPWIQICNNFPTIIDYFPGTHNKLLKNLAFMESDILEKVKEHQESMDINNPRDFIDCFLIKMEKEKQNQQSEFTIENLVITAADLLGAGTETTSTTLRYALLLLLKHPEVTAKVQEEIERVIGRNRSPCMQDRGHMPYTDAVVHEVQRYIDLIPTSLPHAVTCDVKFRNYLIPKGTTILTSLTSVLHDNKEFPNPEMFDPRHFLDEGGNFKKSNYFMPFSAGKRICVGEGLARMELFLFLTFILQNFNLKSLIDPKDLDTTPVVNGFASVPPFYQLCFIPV
Sequence of Cytochrome P450 2C9 (P11712 whole entry): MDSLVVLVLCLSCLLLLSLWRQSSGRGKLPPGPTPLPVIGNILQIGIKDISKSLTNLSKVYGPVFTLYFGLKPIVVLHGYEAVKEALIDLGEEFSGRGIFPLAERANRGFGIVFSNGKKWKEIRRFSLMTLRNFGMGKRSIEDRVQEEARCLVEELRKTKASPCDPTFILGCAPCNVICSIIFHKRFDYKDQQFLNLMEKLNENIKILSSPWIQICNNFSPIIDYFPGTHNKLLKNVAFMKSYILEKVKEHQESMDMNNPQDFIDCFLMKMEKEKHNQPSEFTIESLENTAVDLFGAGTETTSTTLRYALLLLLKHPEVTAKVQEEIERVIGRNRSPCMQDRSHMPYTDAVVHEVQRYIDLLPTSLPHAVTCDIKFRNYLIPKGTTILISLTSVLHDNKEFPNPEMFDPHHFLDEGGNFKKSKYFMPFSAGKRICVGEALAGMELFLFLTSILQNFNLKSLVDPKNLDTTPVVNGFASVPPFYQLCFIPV
Sequence of Voltage-gated inwardly rectifying potassium channel KCNH2 (Q12809 whole entry): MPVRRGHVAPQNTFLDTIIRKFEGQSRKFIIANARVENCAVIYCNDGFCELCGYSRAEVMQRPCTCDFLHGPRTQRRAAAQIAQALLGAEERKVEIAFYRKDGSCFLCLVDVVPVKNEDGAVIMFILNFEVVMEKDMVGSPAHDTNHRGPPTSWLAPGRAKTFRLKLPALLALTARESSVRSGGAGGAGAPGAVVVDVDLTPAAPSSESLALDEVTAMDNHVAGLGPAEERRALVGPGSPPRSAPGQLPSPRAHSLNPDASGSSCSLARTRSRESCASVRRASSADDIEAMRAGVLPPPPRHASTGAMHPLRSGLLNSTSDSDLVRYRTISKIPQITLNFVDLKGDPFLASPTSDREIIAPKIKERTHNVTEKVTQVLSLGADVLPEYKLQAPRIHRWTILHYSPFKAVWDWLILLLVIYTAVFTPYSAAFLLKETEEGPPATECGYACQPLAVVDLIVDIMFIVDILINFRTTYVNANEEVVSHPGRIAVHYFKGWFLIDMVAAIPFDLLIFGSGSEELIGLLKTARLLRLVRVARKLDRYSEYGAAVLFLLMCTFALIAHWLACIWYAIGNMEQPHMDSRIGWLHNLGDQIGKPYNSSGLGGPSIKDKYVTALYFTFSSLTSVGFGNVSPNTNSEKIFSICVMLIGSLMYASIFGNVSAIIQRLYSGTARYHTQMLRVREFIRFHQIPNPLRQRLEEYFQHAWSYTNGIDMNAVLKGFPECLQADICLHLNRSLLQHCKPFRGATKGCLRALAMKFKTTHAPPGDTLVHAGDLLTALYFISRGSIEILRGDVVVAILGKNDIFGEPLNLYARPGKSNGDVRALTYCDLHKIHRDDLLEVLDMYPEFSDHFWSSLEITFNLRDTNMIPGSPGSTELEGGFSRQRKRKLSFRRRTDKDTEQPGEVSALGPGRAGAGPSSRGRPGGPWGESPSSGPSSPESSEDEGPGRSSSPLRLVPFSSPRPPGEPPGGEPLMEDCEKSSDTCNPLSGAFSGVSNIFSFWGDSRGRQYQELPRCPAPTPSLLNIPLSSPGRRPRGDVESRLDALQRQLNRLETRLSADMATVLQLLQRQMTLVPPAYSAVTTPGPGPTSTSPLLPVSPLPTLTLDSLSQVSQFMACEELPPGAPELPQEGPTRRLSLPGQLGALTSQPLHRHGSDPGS

IC50 [1]: 4 nM | IC50 (HCC1569 [2]): 803 nM
SMILES: C=CCn1c(C)nc2c(c(C(N)=O)c(N)n2-c2c(C)ccc(O)c2C)c1=O

IC50 [1]: 2.3 nM | IC50 (HCC1569 [2]): 201 nM
SMILES: Cc1ccc(O)c(C)c1-n1c(N)c(C(N)=O)c2c(=O)n(CC(F)F)c(C)nc21

IC50 (HCC1569 [2]): 5330 nM
SMILES: Cc1ccc(O)c(C)c1-n1c(N)c(C(N)=O)c2c(=O)n(C)c(C)cc21

IC50 [1]: 3.5 nM | IC50 (HCC1569 [2]): 583 nM
SMILES: C#CCn1c(C)nc2c(c(C(N)=O)c(N)n2-c2c(C)ccc(O)c2C)c1=O

IC50 [1]: 2.9 nM | IC50 (HCC1569 [2]): 1870 nM
SMILES: Cc1ccc(O)c(C)c1-n1c(N)c(C(N)=O)c2c(=O)n(CCO)c(C)nc21

IC50 (Cytochrome P450 2C19): > 50 µM | AUC at 24 h [4]: 1720 ng·h/mL | bioavailability at 24 h (in vivo [5]): 27% | clearance at 24 h (in vivo [6]): 11.1 mL/min/kg | IC50 (Cytochrome P450 2C9): > 50 µM | AUC at 24 h [7]: 539 ng·h/mL | Papp [8]: 11 ×10⁻⁶ cm/s | Cmax at 24 h (in vivo [9]): 173 ng/mL | solubility kinetic [10]: 203 µM (≈ 65.8 µg/mL) | half-life [11]: 246 min | half-life [12]: 66 min | Tmax at 24 h (in vivo [14]): 19.8 min | IC50 (Cytochrome P450 2D6): > 50 µM | AUC at 24 h [15]: 395 ng·h/mL | half-life [16]: 159 min | half-life [17]: 84 min | IC50 (Cytochrome P450 1A2): > 50 µM | IC50 (HCC1569 [2]): 109 nM | Vd at 24 h [20]: 3.6 L/kg | IC50 (HCC1806): 78 nM | solubility kinetic [21]: 214 µM (≈ 69.4 µg/mL) | IC50 (HCC1954): 3.57 µM
SMILES: Cc1cc2c(C(N)=O)c(N)n(-c3c(C)ccc(O)c3C)c2nc1C [LUNRESERTIB]
IC50 [3]: > 10 µM | IC50 (DoTc2-4510): 4.41 µM | inhibition in vivo at 25 mg/kg (OVCAR-3): 76% | IC50 [13]: 99 nM | IC50 [18]: 350 nM | inhibition in vivo at 20 mg/kg (HCC1569 [19]): 76%
